Results: patent publication EP0369657A2, “Chromogenic substrate for esterase and immunoassay using same” (Becton Dickinson and Company, priority 1988, dated 1990)

Tested on: rabbit liver esterase (RLE)
Assay: Stopping of DCIPB color formation in the dual enzyme assay for Influenza A
Format: biochemical
Details: added after five minute incubation with DCIPB; TFAP as 40 µL of 1 mM in 50 mM Tris, pH 7.5; read at 620 nm
Description: A mixture of the blocked inhibitor from Example II (1 x 10⁻⁴M) and rabbit liver esterase (RLE) (5 x 10⁻⁹M) in 50 mM diethanolamine (DEOA), pH 9.0 was added to each well (150 µL), and incubated at room temperature for 20 minutes.
A solution of DCIPB (0.35 mM in 50 mM Tris, pH 7.5, containing 20% methanol) was added to each well (150 µL). After a five minute incubation, 40 µL of a solution of 1 mM 1,1,1-trifluoroacetophenone (TFAP) in 50 mM Tris, pH 7.5, was added to stop the reaction.
The same effect was achieved by the addition of free inhibitor (product B from Example II). After "stopping," test wells having a high concentration of antigen remained colorless for several hours.

Compound	effect on color formation process
O=C(c1ccccc1)C(F)(F)F [1,1,1-trifluoroacetophenone (TFAP), 1,1,1-trifluoroacetophenone]	stopped the color formation process
O=C(CCc1ccc(O)cc1)C(F)(F)F [compound 3, 1,1,1-trifluoro-4-(4-hydroxyphenyl)-2-butanone]	same effect
